Patent US20250101061A1, “UPREGULATION OF FERRITIN HEAVY CHAIN 1 EXPRESSION” (HBC Immunology Inc., priority 2022, published 2025)
Where “and” joins values, the source holds several entries; their conditions need not be identical. Equal values may be shown once. Peptide text beside a SMILES is read from it.

Assays:
[1] = system: Immortalized human astrocytes (P10251-IM); assay: Protection of human astrocytes from hemin-induced injury (LDH release assay); format: cell-based; conditions: for % LDH Release (individual runs) / % LDH Release, Average: 24 hr pre-treatment: SPH 160 μM, oligopeptide 10 μM, collagen control 160 μM, then 30 μM hemin 6 hrs, scaled to 0.1% Triton X-100 lysis; for mortality of astrocytes after hemin: oligopeptide 10 μM pre-treatment, hemin-induced oxidative damage
Experimental: (§1) Immortalized human astrocytes (P10251-IM) were obtained from Innoprot, Spain and prepared under conditions recommended by the supplier. At 90% confluency, the P10251-IM cells were rinsed with 8 ml of DPBS and 2 ml of the T/E Solution (prepared as per Innoprot procedure), then added into an […] and gently rocked so that the P10251-IM cells would be completely covered. The flask was subsequently incubated at 37° C. for 2 minutes. Then 5 ml of fetal bovine serum (FBS) and the T/E solution from the flask were added into a 50 ml conical centrifuge tube. The flask was incubated for an additional 2 minutes, and the P10251-IM cells dislodged from the surface by gentle tapping. The P10251-IM cells were then transferred to the 50 ml conical centrifuge tube with 5 ml of TNS solution. The tube was centrifuged at 1000 rpm for 5 minutes. Then the P10251-IM cells were resuspended in the culture medium, counted, and plated in a poly-L-lysine-coated culture plate at 1×10^4 cell density. Cells were tested after they were incubated for 21 days in vitro.
(§2) Confluent P10251-IM cell cultures were washed and then pre-treated with medium alone, or medium supplemented with SPH (160 μM) or an oligopeptide (10 μM) for 24 hr at 37° C. Commercial collagen peptide (Vital Protein) at 160 μM concentration and sterile water were used as negative controls. The P10251-IM cells were subsequently treated with 30 μM hemin in serum-free medium consisting of MEM with 10 mM glucose (MEM10) for 6 hrs.
P10251-IM astrocyte cultures that were […] with 30 μM hemin sustained widespread cell injury. Cell viability was quantified using the lactate dehydrogenase (LDH) release assay as previously described (Chen and Regan, Curr Neurovasc Res, 2:189-196, 2005). Briefly, quantification of the protective effects of SPH and oligopeptides were assessed by determining the mean percentage LDH released, scaled to the complete lysis control culture which was treated with 0.1% Triton X-100 (considered to release 100% of culture LDH).

H-Ferritin [2] = assay: H-Ferritin gene expression in hemin-treated astrocytes by qRT-PCR; format: cell-based, human; conditions: oligopeptide 10 μM; for H-Ferritin Fold Change, Average / H-Ferritin Fold Change (individual runs): SPH 160 μM, collagen control 160 μM, after 6 hr hemin; for H-Ferritin Fold Change (individual runs): GAPDH housekeeping, normalized to control wells
Experimental: as §1, §2
(§3) L-Ferritin and H-Ferritin gene expression were then quantified. Briefly, after 6 hr incubation with hemin, the astrocytes were lysed, and RNA was extracted using the Qiagen lipid mini kit. The expression of both genes (L-ferritin and H-ferritin) involved in iron homeostasis was assessed by qRT-PCR. Fold changes were calculated using the ΔCt method, using GAPDH as the housekeeping gene. Fold changes were normalized to expression levels in control wells. Experiments were run in triplicate.
(§4) The primers used for amplification of cDNA were: […]

L-Ferritin = L-Ferritin gene expression in hemin-treated astrocytes by qRT-PCR; format: cell-based, human; conditions: SPH 160 μM, oligopeptide 10 μM, collagen control 160 μM, after 6 hr hemin; for L-Ferritin Fold Change (individual runs): GAPDH housekeeping, normalized to control wells
Experimental: as §1, §2, §3, §4

H-Ferritin [3] = assay: H-Ferritin protein levels in mouse bone marrow-derived macrophages (ELISA); format: cell-based; conditions: murine macrophages; for H-Ferritin Protein Levels, Fe-Normal / H-Ferritin Protein Levels, DFO (−Fe) / H-Ferritin Protein Levels, Fe-NTA (+Fe): SPH 160 μM or oligopeptide 10 μM; for H-Ferritin Protein Levels, Fe-Normal: normal iron, average of triplicate; for H-Ferritin Protein Levels, DFO (−Fe): with DFO 100 μM 16 h; for H-Ferritin Protein Levels, Fe-NTA (+Fe): with Fe-NTA 8 h; for intracellular H-Ferritin protein levels: normal and iron-depleted conditions
Experimental: (§5) Cell Cultures. MBMMs (C57BL/6 genetic background) were obtained from CellBiologics.net and prepared under the conditions recommended by the supplier. Isolated MBMMs were seeded onto 10 cm diameter Petri dishes and grown in RPMI-GlutaMAX™ medium (Invitrogen) supplemented with 10% heat-inactivated FCS (Gibco), 10% L-cell-conditioned medium (source of colony-stimulating factor 1), 2 mM L-glutamine, 50 U/mL penicillin, and […] streptomycin. At 4 days after seeding, the adherent MBMMs were rinsed twice with Hanks balance salt solution (HBSS), and the medium was renewed for 7 days, at which point the MBMMs had completely differentiated into macrophages that were ready for downstream experimental applications.
(§6) Cell Treatments. SPH (average molecular weight of about 1100 Daltons) and oligopeptides were dissolved in sterile water to obtain […] stock solutions. The SPH and oligopeptides were further diluted in cell culture media to reach final concentrations of 160 μM SPH and 10 μM oligopeptide per Petri dish.
(§7) Murine macrophages were incubated with SPH or an oligopeptide in the presence or absence of an iron-nitrilotriacetate solution (Fe-NTA; FeCl3 (100 μM)-NTA (400 μM)) for 8 h at 37° C. to increase cellular iron concentration. Murine macrophages were also incubated with SPH or an oligopeptide in the presence or absence of desferrioxamine mesylate (DFO; 100 μM) for 16 h at 37° C. to decrease cellular iron concentration. Commercial collagen peptide (Vital Protein) at a 10 μM concentration and sterile water were used as negative controls.
Quantification of H-Ferritin. Macrophages were washed with cold saline and lysed with 400 μl of a solution containing 50 mM HEPES (Gibco), 1% IGEPAL C-630 (Sigma), and 1% proteases inhibitor cocktail P840 (Sigma). H-Ferritin concentrations in the lysates were determined by ELISA using polyclonal antibodies raised against mouse recombinant H-ferritin subunits and calibrated with the corresponding recombinant homopolymers. The specificity and the absence of cross-reactivity of the antibodies are documented. The results were expressed as (ng ferritin) per (mg total protein) in the cell lysate and shown as an average of triplicate readings in Table 8-1. Total protein content was measured using the BCA protein assay kit (Pierce).

FTH1 = FTH1 mRNA levels in mouse bone marrow-derived macrophages (qPCR); format: cell-based; conditions: murine macrophages; for FTH1 Levels, Fe-Normal / FTH1 Levels, DFO (−Fe) / FTH1 Levels, Fe-NTA (+Fe): SPH 160 μM or oligopeptide 10 μM; for FTH1 Levels, Fe-Normal: normal iron, normalized to Hprt1, relative to control samples; for FTH1 Levels, DFO (−Fe): with DFO 100 μM 16 h; for FTH1 Levels, DFO (−Fe) / FTH1 Levels, Fe-NTA (+Fe): relative to control samples; for FTH1 Levels, Fe-NTA (+Fe): with Fe-NTA 8 h; for FTH1 mRNA expression: normal and iron-depleted conditions
Experimental: as §5, §6, §7
Measurement of Gene Expression. Total RNA was extracted from macrophages using the Qiagen miRNeasy Mini Kit for purification of total RNA from animal and human cells and tissues according to the manufacturer's instructions. About 2 μg of total RNA was transcribed into cDNA, after RT2 RNA QC PCR Array was run to confirm the quality of the RNA samples followed by gene expression analysis using RT2 Profiler PCR array.
as §4
All reactions were performed in a total reaction volume of 20 μl with iQ™ SYBR® Green Supermix (Bio-Rad) and carried out in the iQ™5 instrument (Bio-Rad). Baseline thresholds were calculated by Bio-Rad iQ5 program, and the threshold cycles (Ct) were used, wherein Ct values for the Fth1 gene were normalized to expression levels of Hprt1 (housekeeping) gene. Results are shown in Table 8-2 as n-fold difference relative to the control samples.

Row | SMILES | % LDH Release (individual runs) [1] | % LDH Release, Average [1] [%] | mortality of astrocytes after hemin [1] [%] | H-Ferritin Fold Change, Average (H-Ferritin [2]) [fold] | H-Ferritin Fold Change (individual runs) (H-Ferritin [2]) | increases in H-Ferritin gene expression (H-Ferritin [2]) [fold] | L-Ferritin Fold Change, Average (L-Ferritin) [fold] | L-Ferritin Fold Change (individual runs) (L-Ferritin) | H-Ferritin Protein Levels, Fe-Normal (H-Ferritin [3]) [ng/mg total protein] | H-Ferritin Protein Levels, DFO (−Fe) (H-Ferritin [3]) [ng/mg total protein] | H-Ferritin Protein Levels, Fe-NTA (+Fe) (H-Ferritin [3]) [ng/mg total protein] | intracellular H-Ferritin protein levels (H-Ferritin [3]) | FTH1 Levels, Fe-Normal (FTH1) [n-fold] | FTH1 Levels, DFO (−Fe) (FTH1) [n-fold] | FTH1 Levels, Fe-NTA (+Fe) (FTH1) [n-fold] | FTH1 mRNA expression (FTH1)
1 | CC(C)C[C@H](NC(=O)[C@H](CCC(=O)O)NC(=O)CNC(=O)[C@H](CO)NC(=O)[C@H](CCC(=O)O)NC(=O)[C@H](CCC(=O)O)NC(=O)[C@@H](N)CCCNC(=N)N)C(=O)O [FT-008, REESGEL] (H-REESGEL-OH) | 29% and 27% and 31% | 29 | 29 | 4.2 | 4.1 fold (2×) and 4.4 fold | 4.0 | 1.6 | 1.8 fold and 1.6 fold and 1.5 fold | 158 | 122 | 200 | substantial increases | 2.5 | 3.4 | 2.7 | substantial increases
2 | CSCC[C@H](NC(=O)[C@@H]1CCCN1C(=O)[C@H](CCCCN)NC(=O)[C@H](CC(=O)O)NC(=O)[C@H](CO)NC(=O)[C@H](CCC(=O)O)NC(=O)[C@H](CCC(=O)O)NC(=O)[C@@H](N)CCCNC(=N)N)C(=O)N[C@@H](Cc1ccc(O)cc1)C(=O)O [FT-006, REESDKPMY] (H-REESDKPMY-OH) | 40% and 39% and 42% | 40 | 40 | 3.0 | 2.9 fold (2×) and 3.1 fold | 3.0 | 1.3 | 1.3 fold | 174 | 105 | 257 | substantial increases | 2.7 | 3.3 | 2.8 | substantial increases
3 | N=C(N)NCCC[C@H](NC(=O)[C@@H]1CCCN1)C(=O)N[C@@H](CCC(=O)O)C(=O)N[C@@H](CCC(=O)O)C(=O)N[C@@H](CO)C(=O)N[C@@H](CC(=O)O)C(=O)N[C@@H](CCCCN)C(=O)N1CCC[C@H]1C(=O)O [FT-007, PREESDKP] (H-PREESDKP-OH) | 35% and 38% and 34% | 36 | 36 | 3.3 | 3.5 fold and 3.2 fold and 3.3 fold | 3.3 | 1.1 | 1.1 fold and 1.2 fold and 1.0 fold | 142 | 111 | 197 | substantial increases | 1.9 | 3.1 | 2.9 | substantial increases
